The values that follow come from patent publication US10829501B2 (BRISTOL-MYERS SQUIBB COMPANY, priority 2016, dated 2020).

Where a name gives a salt, the structure may show the parent alone. Read-outs that look alike come from different tables or passages of the source.

Assay [1] has as its system IL-1 beta-induced coronary stenosis. To be noted: long term treatment, porcine model; cited from earlier work.
For another assay, the system named is rat stroke model. To be noted: cited from earlier work.
The test system of assay [2] is congestive heart failure in Dahl salt-sensitive rats. To be noted: cited from earlier work.
Another assay has as its system neointimal formation. To be noted: rats, balloon injury model; cited from earlier work.
Assay [3] relates to spontaneously hypertensive rat, renal hypertensive rat and deoxycortisone acetate salt hypertensive rat models. To be noted: cited from earlier work.
The next assay deals with ROCK2 (Homo sapiens, UniProt O75116). Briefly: ROCK2 kinase inhibition assay (LABCHIP 3000 Reader, FITC peptide substrate).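 Also: rho kinase reaction read by separating phosphorylated from unphosphorylated peptide on chip, with inhibition of kinase activity computed per concentration across a dose-response series.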
Chain of ROCK2 (O75116 whole entry, species assumed): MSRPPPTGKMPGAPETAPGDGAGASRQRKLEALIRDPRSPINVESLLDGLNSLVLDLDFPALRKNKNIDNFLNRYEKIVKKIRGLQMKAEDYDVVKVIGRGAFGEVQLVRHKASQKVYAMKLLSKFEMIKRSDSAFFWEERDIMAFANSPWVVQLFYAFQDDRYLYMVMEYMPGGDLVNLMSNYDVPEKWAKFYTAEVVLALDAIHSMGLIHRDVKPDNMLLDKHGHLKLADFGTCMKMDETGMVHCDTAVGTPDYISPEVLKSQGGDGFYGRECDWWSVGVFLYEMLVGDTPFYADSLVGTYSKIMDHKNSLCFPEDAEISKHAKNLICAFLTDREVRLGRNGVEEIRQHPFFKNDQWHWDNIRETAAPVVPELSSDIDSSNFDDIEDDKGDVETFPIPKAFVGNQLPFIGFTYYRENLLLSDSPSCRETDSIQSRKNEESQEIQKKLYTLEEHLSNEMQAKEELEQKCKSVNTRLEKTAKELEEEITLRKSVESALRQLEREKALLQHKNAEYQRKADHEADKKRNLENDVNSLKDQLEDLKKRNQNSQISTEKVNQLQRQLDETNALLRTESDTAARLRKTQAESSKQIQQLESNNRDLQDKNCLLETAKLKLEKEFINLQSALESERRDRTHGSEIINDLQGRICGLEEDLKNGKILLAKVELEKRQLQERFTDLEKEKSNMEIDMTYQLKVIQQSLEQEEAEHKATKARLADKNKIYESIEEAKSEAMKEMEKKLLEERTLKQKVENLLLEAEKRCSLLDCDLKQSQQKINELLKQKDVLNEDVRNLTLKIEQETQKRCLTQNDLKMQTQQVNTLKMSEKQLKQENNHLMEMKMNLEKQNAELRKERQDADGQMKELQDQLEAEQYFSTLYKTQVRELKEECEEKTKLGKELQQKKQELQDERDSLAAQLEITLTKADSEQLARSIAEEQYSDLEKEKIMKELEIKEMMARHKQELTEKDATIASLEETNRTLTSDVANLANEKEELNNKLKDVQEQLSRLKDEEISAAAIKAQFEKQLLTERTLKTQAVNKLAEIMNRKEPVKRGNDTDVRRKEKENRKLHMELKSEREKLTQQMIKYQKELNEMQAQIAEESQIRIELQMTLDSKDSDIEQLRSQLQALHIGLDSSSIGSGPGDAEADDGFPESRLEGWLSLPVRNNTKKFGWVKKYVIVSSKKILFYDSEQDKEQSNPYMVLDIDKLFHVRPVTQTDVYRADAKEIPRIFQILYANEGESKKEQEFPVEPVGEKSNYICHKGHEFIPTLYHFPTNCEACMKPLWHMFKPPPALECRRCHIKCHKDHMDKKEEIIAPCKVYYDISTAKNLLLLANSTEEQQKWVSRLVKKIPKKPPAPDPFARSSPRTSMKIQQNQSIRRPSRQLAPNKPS

Turning to `O=S(=O)(c1cccc2cnccc12)N1CCCNCC1` [fasudil], in assay [1], the coronary constrictive remodeling result is recorded as “promote a regression of coronary constrictive remodeling” and the coronary stenosis entry is “progressively reduce coronary stenosis”. The “infarct size and neurologic deficit” value in the assay with rat stroke model was “reduce both the infarct size and neurologic deficit”. Regarding `C[C@@H](N)[C@H]1CC[C@H](C(=O)Nc2ccncc2)CC1` [Example Y-27632], the “ventricular hypertrophy, fibrosis and function” value in assay [2] was “improve ventricular hypertrophy, fibrosis and function”. Also, the neointimal formation result in the assay with neointimal formation is given as “inhibited neointimal formation”. The blood pressure entry in assay [3] (control rats) is recorded as “only a minor effect on blood pressure”; in assay [3] (three rat models of hypertension), “significantly decrease blood pressure”. As a reminder, the IC50 is the concentration needed to halve the response being measured. For `NC(=O)c1cccnc1O[C@H]1CC2(C[C@H](NC(=O)c3cccc(-n4cccn4)c3)C2)C1` (stereo partly drawn) [Example 134, 2-(((aR)-6-(3-(1H-pyrazol-1-yl)benzamido)spiro[3.3]heptan-2-yl)oxy) nicotinamide, trifluoroacetate], the IC50 against ROCK2 is 50 to 250 nM. Same read-out and setting: for `CC(C)(O)COc1ccc2c(C(=O)NC3CC4(C3)CC(Oc3cc(C5CCNC5)ccc3C(N)=O)C4)cnn2c1` (stereo not shown) [Example 301, N-(6-(2-carbamoyl-5-(pyrrolidin-3-yl)phenoxy)spiro[3.3]heptan-2-yl)-6-(2-hydroxy-2-methylpropoxy)pyrazolo[1,5-a]pyridine-3-carboxamide] the value was 5 to 50 nM; for `[H][C@]1(Oc2ncccc2C(N)=O)C[C@@]2(C[C@H](NC(=O)c3cc(-c4cnn(C(F)F)c4)cc(S(C)(=O)=O)c3)C2)C1` (stereo partly shown) [Example 51], 5 to 50 nM; for `[H][C@]1(Oc2ccccc2C(N)=O)C[C@@]2(C[C@H](NC(=O)c3cnn4cc(OCC(C)(C)O)ccc34)C2)C1` (stereo partly drawn) [Example 16, N-((aR)-6-(2-carbamoylphenoxy)spiro[3.3]heptan-2-yl)-6-(2-hydroxy-2-methylpropoxy)pyrazolo[1,5-a]pyridine-3-carboxamide], < 5 nM.

With `NC(=O)c1ccccc1OC1CC2(CC(NC(=O)c3cnn4c(C5CC5)c(OC5CCS(=O)(=O)CC5)ccc34)C2)C1` [Example 35, N-[(aR)-6-(2-carbamoylphenoxy)spiro [3.3]heptan-2-yl]-7-cyclopropyl-6-[(1,1-dioxo-1λ^6-thian-4-yl)oxy]pyrazolo[1,5-a] pyridine-3-carboxamide], on ROCK2, the IC50 is < 5 nM. Still for that read-out and setting: for `Cn1nc(C2CC2)cc1C(=O)N[C@H]1CC2(C1)C[C@H](Oc1ncccc1C(N)=O)C2` (stereo partly drawn) [Example 85, 2-((aR)-6-(3-cyclopropyl-1-methyl-1H-pyrazole-5-carboxamido)spiro[3.3]heptan-2-yl)oxy) nicotinamide, trifluoroacetate] the value was 50 to 250 nM; for `[H][C@]1(Oc2ncccc2C(N)=O)C[C@@]2(C[C@H](NC(=O)c3cccc(-c4cnn(C)c4)c3)C2)C1` (stereo partly shown) [Example 54], 50 to 250 nM. `Cc1nc(-c2ccc(C(F)(F)F)cc2)sc1-c1cc(C#N)cc(C(=O)N[C@H]2CC3(C2)C[C@H](Oc2ncccc2C(N)=O)C3)c1` (stereo partly drawn) [Example 188, 2-((aR)-6-(3-cyano-5-(4-methyl-2-(4-(trifluoromethyl)phenyl)thiazol-5-yl)benzamido)spiro[3.3]heptan-2-yl)oxy)nicotinamide, trifluoroacetate]: on ROCK2, the IC50 was 250 to 2500 nM. The same measure, in the same setting: the value for `Cn1nc(C(=O)N[C@H]2CC3(C2)C[C@H](Oc2ncccc2C(N)=O)C3)cc1OCC(F)(F)C(F)F` (stereo partly drawn) [Example 87, 2-((aR)-6-(1-methyl-5-(2,2,3,3-tetrafluoropropoxy)-1H-pyrazole-3-carboxamido)spiro[3.3]heptan-2-yl)oxy) nicotinamide, trifluoroacetate] was 50 to 250 nM; that for `CC(C)(O)COc1ccc2c(C(=O)N[C@H]3CC4(C3)C[C@H](Oc3cc(Br)ccc3C(N)=O)C4)cnn2c1` (stereo partly drawn) [Example 302, N-((aR)-6-(5-bromo-2-carbamoylphenoxy)spiro[3.3]heptan-2-yl)-6-(2-hydroxy-2-methylpropoxy)pyrazolo[1,5-a]pyridine-3-carboxamide] was < 5 nM; that for `[H][C@]1(Oc2ncccc2C(N)=O)C[C@@]2(C[C@H](NC(=O)c3cc(C#N)cc(-c4cnc(C)s4)c3)C2)C1` (stereo partly drawn) [Example 180, 2-(((aR)-6-(3-cyano-5-(2-methylthiazol-5-yl)benzamido)spiro[3.3]heptan-2-yl)oxy)nicotinamide, TFA] was < 5 nM. As to `[H][C@]1(Oc2ncccc2C(N)=O)C[C@@]2(C[C@H](NC(=O)c3cc(-c4cnn(C)c4)cc(S(C)(=O)=O)c3)C2)C1` (stereo partly shown) [Example 52], the IC50 on ROCK2 was 5 to 50 nM.

At ROCK2, `NC(=O)c1ccccc1O[C@H]1CC2(C[C@H](NC(=O)N3Cc4ccccc4C3)C2)C1` (stereo partly drawn) [Example 41, N-[(aR)-6-(2-carbamoylphenoxy)spiro [3.3]heptan-2-yl]-2,3-dihydro-1H-isoindole-2-carboxamide] registered an IC50 of 50 to 250 nM. Consider “2-(((aR)-6-(3-cyano- 5-(1-methyl- 1H-pyrazol-4- yl)benzamido) spiro[3.3]heptan-2- yl)oxy)nicotinamide [Example 195]”, for which, at ROCK2 (read-out: ROCK2 Activity (ROCK2 IC50), 5 μM ATP, 1.5 μM peptide substrate, pH 7.5), the IC50 was < 5 nM.

In the case of `NC(=O)c1cccnc1O[C@H]1CC2(C[C@H](NC(=O)c3cnn4cc(CCC(F)(F)F)ccc34)C2)C1` (stereo partly drawn) [Example 118, N-((aR)-6-((3-carbamoylpyridin-2-yl)oxy)spiro[3.3]heptan-2-yl)-6-(3,3,3-trifluoropropyl) pyrazolo[1,5-a[pyridine-3-carboxamide, trifluoroacetate], at ROCK2, the IC50 is 5 to 50 nM.
